Columns and labels:
Acid phosphatase = experiment: Mouse hepatic lysosomal acid phosphatase activity; type: biochemical; settings: Table V; mouse hepatic, 60 min incubation
Text: (§1) 1. Cf1 male mouse hepatic 10% homogenates in 0.25M sucrose+0.001MEDTA,pH 7.2.
Lysosomal Enzymes - free and total [triton X-100].
1. Acid phosphatase -beta glycerol-3-phosphate, pH 5.0, released IP 720 nm.
Acid phosphatase activity -

Elastase = experiment: Mouse hepatic elastase activity; type: biochemical; settings: Table VI, 60 min incubation
Text: as §1
2. Elastase- N-succinyl-L-alanyl-L-alanine-p-nitroanilide, pH 8.0, p-nitro anilide 410 nm.
Elastase activity - in vitro

5'-lipoxygenase = biological target: T1, 5'-lipoxygenase (Mus musculus, UniProt P48999); experiment: Mouse hepatic 5'-lipoxygenase activity; type: biochemical; settings: Table VI; mouse hepatic, 60 min incubation; read-out: 5'-lipoxygenase IC50
T1 construct: Cf1 male mouse hepatic 10% homogenates; from tissue; host or cells: CF1 male mouse liver, 10% homogenate
T1 sequence (P48999 1-674): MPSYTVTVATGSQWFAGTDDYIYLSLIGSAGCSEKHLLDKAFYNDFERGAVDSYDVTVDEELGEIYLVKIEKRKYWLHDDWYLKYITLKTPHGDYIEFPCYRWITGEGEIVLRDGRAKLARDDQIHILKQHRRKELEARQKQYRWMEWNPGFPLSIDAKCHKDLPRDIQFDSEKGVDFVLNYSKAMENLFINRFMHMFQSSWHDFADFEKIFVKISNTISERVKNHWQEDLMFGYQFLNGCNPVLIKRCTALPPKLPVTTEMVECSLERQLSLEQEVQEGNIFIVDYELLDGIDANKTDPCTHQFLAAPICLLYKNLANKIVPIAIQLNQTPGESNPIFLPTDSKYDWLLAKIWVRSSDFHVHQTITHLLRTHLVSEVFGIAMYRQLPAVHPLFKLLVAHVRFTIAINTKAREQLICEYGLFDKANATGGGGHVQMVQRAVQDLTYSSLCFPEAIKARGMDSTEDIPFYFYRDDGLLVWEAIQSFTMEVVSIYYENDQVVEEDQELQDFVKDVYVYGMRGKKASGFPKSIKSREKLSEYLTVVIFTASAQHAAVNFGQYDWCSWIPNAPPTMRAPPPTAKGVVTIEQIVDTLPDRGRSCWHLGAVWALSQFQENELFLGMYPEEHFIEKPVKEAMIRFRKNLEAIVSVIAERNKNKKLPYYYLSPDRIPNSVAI
Text: as §1
5'-lipoxygenase Mylari, B.L., et al, J. Med.

[1] = test system: Prostaglandin cyclooxygenase; experiment: Human osteoporosis fibroblasts prostaglandin cyclooxygenase activity; type: cell-based; settings: Table XI, 60 min incubation, read-out: Prostaglandin Cyclooxygense IC50
[2] = biological target: Clostridium histolyticum Collagenase Type II; experiment: Commercial collagenase type II; type: biochemical; settings: Table IX; commercial enzyme preparation
Text: 4. Collagenase II, Clostridium histolyticum, cartilage collagen.

CCCCCCCCCCCCCCCC[N+](C)(C)[BH2-]C(=O)O [Compound 7, N,N-Dimethylhexadecylamine-carboxyborane]
IC50 (Acid phosphatase): 8.86 µM | IC50 (Elastase): 49.6 µM | IC50 (5'-lipoxygenase): 55.8 µM | IC50 [1]: 6.77 µM | IC50 [2]: 109 µM
